Data reported in ChEMBL document CHEMBL3865792, “Antioxidant and antitumor activity of trolox, trolox succinate, and α-tocopheryl succinate conjugates with nitroxides” (Eur J Med Chem, 2016).

tested on: not listed separately; assay: Ratio of IC50 for human HEPG2 cells to concentration causing antioxidant activity in Salmonella typhimurium TA102 harboring […] mutant; assay type: functional; conditions: not given

SMILES | Ratio
Cc1c(C)c2c(c(C)c1O)CCC(C)(C(=O)NCC1CC(C)(C)N([O])C1(C)C)O2 (stereo unspecified) | 100 - 1000
Cc1c(C)c2c(c(C)c1OC(=O)CCC(=O)NC1CC(C)(C)N([O])C1(C)C)CC[C@@](C)(CCC[C@H](C)CCC[C@H](C)CCCC(C)C)O2 (stereo partly specified) | 100 - 1000

tested on: not listed separately; assay: Ratio of IC50 for human RPMI8226 cells to concentration causing antioxidant activity in Salmonella typhimurium TA102 harboring […] mutant; assay type: functional, RPMI-8226; conditions: not given

SMILES | Ratio
Cc1c(C)c2c(c(C)c1O)CCC(C)(C(=O)NCC1CC(C)(C)N([O])C1(C)C)O2 (stereo unspecified) | 100 - 1000
Cc1c(C)c2c(c(C)c1OC(=O)CCC(=O)NC1CC(C)(C)N([O])C1(C)C)CC[C@@](C)(CCC[C@H](C)CCC[C@H](C)CCCC(C)C)O2 (stereo partly specified) | 100 - 1000

tested on: not listed separately; assay: Cytotoxicity against human CEM13 cells assessed as reduction in cell viability after 72 hrs by MTT assay; assay type: functional, cell-based; conditions: CEM13, 72 h

SMILES | IC50 [µM]
Cc1c(C)c2c(c(C)c1O)CCC(C)(C(=O)NCC1CC(C)(C)N([O])C1(C)C)O2 (stereo unspecified) | > 300
Cc1c(C)c2c(c(C)c1OC(=O)CCC(=O)NC1CC(C)(C)N([O])C1(C)C)CC[C@@](C)(CCC[C@H](C)CCC[C@H](C)CCCC(C)C)O2 (stereo partly specified) | > 300

tested on: not listed separately; assay: Cytotoxicity against hamster AG17-1 cells assessed as reduction in cell viability at 300 uM after 72 hrs by MTT assay; assay type: toxicity, cell-based, Cricetulus griseus; conditions: Chinese hamster, read-out: INH

SMILES | cytotoxicity at 72 h, 300 µM [%]
Cc1c(C)c2c(c(C)c1OC(=O)CCC(=O)NC1CC(C)(C)N([O])C1(C)C)CC[C@@](C)(CCC[C@H](C)CCC[C@H](C)CCCC(C)C)O2 (stereo partly specified) | 38

tested on: not listed separately; assay: Cytotoxicity against human HepG2 cells assessed as reduction in cell viability at 300 uM after 72 hrs by MTT assay; assay type: functional; conditions: HepG2, 72 h

SMILES | inhibition at 300 µM [%]
Cc1c(C)c2c(c(C)c1O)CCC(C)(C(=O)NCC1CC(C)(C)N([O])C1(C)C)O2 (stereo unspecified) | 38
Cc1c(C)c2c(c(C)c1OC(=O)CCC(=O)NC1CC(C)(C)N([O])C1(C)C)CC[C@@](C)(CCC[C@H](C)CCC[C@H](C)CCCC(C)C)O2 (stereo partly specified) | 38

tested on: not listed separately; assay: Ratio of IC50 for human U937 cells to concentration causing antioxidant activity in Salmonella typhimurium TA102 harboring […] mutant; assay type: functional, U-937; conditions: not given

SMILES | Ratio
Cc1c(C)c2c(c(C)c1O)CCC(C)(C(=O)NCC1CC(C)(C)N([O])C1(C)C)O2 (stereo unspecified) | 100 - 1000
Cc1c(C)c2c(c(C)c1OC(=O)CCC(=O)NC1CC(C)(C)N([O])C1(C)C)CC[C@@](C)(CCC[C@H](C)CCC[C@H](C)CCCC(C)C)O2 (stereo partly specified) | 100 - 1000

tested on: not listed separately; assay: Cytotoxicity against human MCF7 cells assessed as reduction in cell viability after 72 hrs by MTT assay; assay type: functional, cell-based; conditions: MCF7, 72 h

SMILES | IC50 [µM]
Cc1c(C)c2c(c(C)c1O)CCC(C)(C(=O)NCC1CC(C)(C)N([O])C1(C)C)O2 (stereo unspecified) | > 300
Cc1c(C)c2c(c(C)c1OC(=O)CCC(=O)NC1CC(C)(C)N([O])C1(C)C)CC[C@@](C)(CCC[C@H](C)CCC[C@H](C)CCCC(C)C)O2 (stereo partly specified) | 95

tested on: not listed separately; assay: Cytotoxicity against human MCF7 cells assessed as reduction in cell viability at 300 uM after 72 hrs by MTT assay; assay type: functional; conditions: MCF7, 72 h

SMILES | inhibition at 300 µM [%]
Cc1c(C)c2c(c(C)c1O)CCC(C)(C(=O)NCC1CC(C)(C)N([O])C1(C)C)O2 (stereo unspecified) | 34

tested on: Salmonella enterica subsp. enterica serovar Typhimurium; assay: Antioxidant activity in Salmonella typhimurium TA102 harboring […] mutant assessed as inhibition of t-BuO2H-dependant mutant formation at 3 uM preincubated with compound followed by t-BuO2H addition after 48 hrs by Ames test; assay type: functional; conditions: not given

SMILES | inhibition [%]
Cc1c(C)c2c(c(C)c1O)CCC(C)(C(=O)NCC1CC(C)(C)N([O])C1(C)C)O2 (stereo unspecified) | 21.5
Cc1c(C)c2c(c(C)c1OC(=O)CCC(=O)NC1CC(C)(C)N([O])C1(C)C)CC[C@@](C)(CCC[C@H](C)CCC[C@H](C)CCCC(C)C)O2 (stereo partly specified) | 29

tested on: not listed separately; assay: Cytotoxicity against hamster AG17-1 cells assessed as reduction in cell viability after 72 hrs by MTT assay; assay type: toxicity, cell-based, Cricetulus griseus; conditions: Chinese hamster

SMILES | IC50 at 72 h [µM]
Cc1c(C)c2c(c(C)c1O)CCC(C)(C(=O)NCC1CC(C)(C)N([O])C1(C)C)O2 (stereo unspecified) | 192
Cc1c(C)c2c(c(C)c1OC(=O)CCC(=O)NC1CC(C)(C)N([O])C1(C)C)CC[C@@](C)(CCC[C@H](C)CCC[C@H](C)CCCC(C)C)O2 (stereo partly specified) | > 300

tested on: not listed separately; assay: Ratio of IC50 for human MCF7 cells to concentration causing antioxidant activity in Salmonella typhimurium TA102 harboring […] mutant; assay type: functional; conditions: not given

SMILES | Ratio
Cc1c(C)c2c(c(C)c1O)CCC(C)(C(=O)NCC1CC(C)(C)N([O])C1(C)C)O2 (stereo unspecified) | 100 - 1000
Cc1c(C)c2c(c(C)c1OC(=O)CCC(=O)NC1CC(C)(C)N([O])C1(C)C)CC[C@@](C)(CCC[C@H](C)CCC[C@H](C)CCCC(C)C)O2 (stereo partly specified) | 100 - 1000

tested on: not listed separately; assay: Cytotoxicity against mouse LMTK cells assessed as reduction in cell viability after 72 hrs by MTT assay; assay type: toxicity; conditions: not given

SMILES | IC50 at 72 h [µM]
Cc1c(C)c2c(c(C)c1O)CCC(C)(C(=O)NCC1CC(C)(C)N([O])C1(C)C)O2 (stereo unspecified) | 300
Cc1c(C)c2c(c(C)c1OC(=O)CCC(=O)NC1CC(C)(C)N([O])C1(C)C)CC[C@@](C)(CCC[C@H](C)CCC[C@H](C)CCCC(C)C)O2 (stereo partly specified) | > 300

tested on: Salmonella enterica subsp. enterica serovar Typhimurium; assay: Antioxidant activity in Salmonella typhimurium TA102 harboring […] mutant assessed as inhibition of t-BuO2H-dependant mutant formation at 30 uM preincubated with compound followed by t-BuO2H addition after 48 hrs by Ames test; assay type: functional; conditions: not given

SMILES | inhibition [%]
Cc1c(C)c2c(c(C)c1O)CCC(C)(C(=O)NCC1CC(C)(C)N([O])C1(C)C)O2 (stereo unspecified) | 17.7
Cc1c(C)c2c(c(C)c1OC(=O)CCC(=O)NC1CC(C)(C)N([O])C1(C)C)CC[C@@](C)(CCC[C@H](C)CCC[C@H](C)CCCC(C)C)O2 (stereo partly specified) | 12

tested on: Salmonella typhimurium; assay: Genotoxicity in Salmonella typhimurium TA102 harboring […] mutant assessed as frequency of reversion from histidine auxotrophy to prototrophy at 30 mM after 48 hrs by Ames test (reference value: 209 +/- 10 No _unit); assay type: toxicity, organism-based; conditions: salmonella enterica subsp. enterica serovar typhimurium, 30000 µM

SMILES | Activity
Cc1c(C)c2c(c(C)c1O)CCC(C)(C(=O)NCC1CC(C)(C)N([O])C1(C)C)O2 (stereo unspecified) | 225
Cc1c(C)c2c(c(C)c1OC(=O)CCC(=O)NC1CC(C)(C)N([O])C1(C)C)CC[C@@](C)(CCC[C@H](C)CCC[C@H](C)CCCC(C)C)O2 (stereo partly specified) | 227

tested on: not listed separately; assay: Ratio of IC50 for human MT4 cells to concentration causing antioxidant activity in Salmonella typhimurium TA102 harboring […] mutant; assay type: functional; conditions: not given

SMILES | Ratio
Cc1c(C)c2c(c(C)c1O)CCC(C)(C(=O)NCC1CC(C)(C)N([O])C1(C)C)O2 (stereo unspecified) | 100 - 1000
Cc1c(C)c2c(c(C)c1OC(=O)CCC(=O)NC1CC(C)(C)N([O])C1(C)C)CC[C@@](C)(CCC[C@H](C)CCC[C@H](C)CCCC(C)C)O2 (stereo partly specified) | 100 - 1000

tested on: not listed separately; assay: Genotoxicity in Escherichia coli PQ37 expressing lacZ gene assessed as ratio of inducible beta-galactosidase activity to alkaline phosphatase activity at 30 mM after 2 hrs by SOS-chromotest relative to control; assay type: toxicity; conditions: Escherichia coli PQ37 cells expressing lacZ gene, read-out: FC

SMILES | fold induction at 2 h, 30000 µM
Cc1c(C)c2c(c(C)c1O)CCC(C)(C(=O)NCC1CC(C)(C)N([O])C1(C)C)O2 (stereo unspecified) | 1
Cc1c(C)c2c(c(C)c1OC(=O)CCC(=O)NC1CC(C)(C)N([O])C1(C)C)CC[C@@](C)(CCC[C@H](C)CCC[C@H](C)CCCC(C)C)O2 (stereo partly specified) | 0.8

tested on: not listed separately; assay: Cytotoxicity against human CEM13 cells assessed as reduction in cell viability at 300 uM after 72 hrs by MTT assay; assay type: functional; conditions: CEM13, 72 h

SMILES | inhibition at 300 µM [%]
Cc1c(C)c2c(c(C)c1O)CCC(C)(C(=O)NCC1CC(C)(C)N([O])C1(C)C)O2 (stereo unspecified) | 32
Cc1c(C)c2c(c(C)c1OC(=O)CCC(=O)NC1CC(C)(C)N([O])C1(C)C)CC[C@@](C)(CCC[C@H](C)CCC[C@H](C)CCCC(C)C)O2 (stereo partly specified) | 34

tested on: not listed separately; assay: Cytotoxicity against human HepG2 cells assessed as reduction in cell viability after 72 hrs by MTT assay; assay type: functional, cell-based; conditions: HepG2, 72 h

SMILES | IC50 [µM]
Cc1c(C)c2c(c(C)c1O)CCC(C)(C(=O)NCC1CC(C)(C)N([O])C1(C)C)O2 (stereo unspecified) | > 300
Cc1c(C)c2c(c(C)c1OC(=O)CCC(=O)NC1CC(C)(C)N([O])C1(C)C)CC[C@@](C)(CCC[C@H](C)CCC[C@H](C)CCCC(C)C)O2 (stereo partly specified) | > 300

tested on: not listed separately; assay: Cytotoxicity against human RPMI8226 cells assessed as reduction in cell viability after 72 hrs by MTT assay; assay type: functional, cell-based; conditions: RPMI-8226, 72 h

SMILES | IC50 [µM]
Cc1c(C)c2c(c(C)c1O)CCC(C)(C(=O)NCC1CC(C)(C)N([O])C1(C)C)O2 (stereo unspecified) | 70
Cc1c(C)c2c(c(C)c1OC(=O)CCC(=O)NC1CC(C)(C)N([O])C1(C)C)CC[C@@](C)(CCC[C@H](C)CCC[C@H](C)CCCC(C)C)O2 (stereo partly specified) | 55

tested on: not listed separately; assay: Ratio of IC50 for human CEM13 cells to concentration causing antioxidant activity in Salmonella typhimurium TA102 harboring […] mutant; assay type: functional; conditions: not given

SMILES | Ratio
Cc1c(C)c2c(c(C)c1O)CCC(C)(C(=O)NCC1CC(C)(C)N([O])C1(C)C)O2 (stereo unspecified) | 100 - 1000
Cc1c(C)c2c(c(C)c1OC(=O)CCC(=O)NC1CC(C)(C)N([O])C1(C)C)CC[C@@](C)(CCC[C@H](C)CCC[C@H](C)CCCC(C)C)O2 (stereo partly specified) | 100 - 1000

tested on: not listed separately; assay: Cytotoxicity against human MT4 cells assessed as reduction in cell viability after 72 hrs by MTT assay; assay type: functional, cell-based; conditions: MT4, 72 h

SMILES | IC50 [µM]
Cc1c(C)c2c(c(C)c1O)CCC(C)(C(=O)NCC1CC(C)(C)N([O])C1(C)C)O2 (stereo unspecified) | 231
Cc1c(C)c2c(c(C)c1OC(=O)CCC(=O)NC1CC(C)(C)N([O])C1(C)C)CC[C@@](C)(CCC[C@H](C)CCC[C@H](C)CCCC(C)C)O2 (stereo partly specified) | 87

tested on: not listed separately; assay: Cytotoxicity against human U937 cells assessed as reduction in cell viability after 72 hrs by MTT assay; assay type: functional, cell-based; conditions: U-937, 72 h

SMILES | IC50 [µM]
Cc1c(C)c2c(c(C)c1O)CCC(C)(C(=O)NCC1CC(C)(C)N([O])C1(C)C)O2 (stereo unspecified) | 134
Cc1c(C)c2c(c(C)c1OC(=O)CCC(=O)NC1CC(C)(C)N([O])C1(C)C)CC[C@@](C)(CCC[C@H](C)CCC[C@H](C)CCCC(C)C)O2 (stereo partly specified) | 69

tested on: not listed separately; assay: Cytotoxicity against mouse LMTK cells assessed as reduction in cell viability at 300 uM after 72 hrs by MTT assay; assay type: toxicity; conditions: read-out: INH

SMILES | cytotoxicity at 72 h, 300 µM [%]
Cc1c(C)c2c(c(C)c1O)CCC(C)(C(=O)NCC1CC(C)(C)N([O])C1(C)C)O2 (stereo unspecified) | 25
Cc1c(C)c2c(c(C)c1OC(=O)CCC(=O)NC1CC(C)(C)N([O])C1(C)C)CC[C@@](C)(CCC[C@H](C)CCC[C@H](C)CCCC(C)C)O2 (stereo partly specified) | 30

tested on: Salmonella enterica subsp. enterica serovar Typhimurium; assay: Antioxidant activity in Salmonella typhimurium TA102 harboring […] mutant assessed as inhibition of t-BuO2H-dependant mutant formation at 0.3 uM preincubated with compound followed by t-BuO2H addition after 48 hrs by Ames test; assay type: functional; conditions: not given

SMILES | inhibition [%]
Cc1c(C)c2c(c(C)c1O)CCC(C)(C(=O)NCC1CC(C)(C)N([O])C1(C)C)O2 (stereo unspecified) | 26
Cc1c(C)c2c(c(C)c1OC(=O)CCC(=O)NC1CC(C)(C)N([O])C1(C)C)CC[C@@](C)(CCC[C@H](C)CCC[C@H](C)CCCC(C)C)O2 (stereo partly specified) | 21
